molecular target: T1, chimeric human H3 receptor (Homo sapiens, UniProt Q9Y5N1, E19D); assay: Chimeric human H3 receptor GTP binding assay (agonist-stimulated GTP-gamma35S binding, Example 7); type: biochemical; settings: assay of Example 7; "*" in Ki of Table II; read-out: Ki
T1 construct: made in house; host or cells: Sf9 insect cells (baculovirus infection); P2 membrane preparation
Procedure, shortened: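 Sf9 membranes co-expressing the chimeric receptor and heterotrimeric G-protein subunits, 35 μg protein per tube, in pH 7.4 Tris buffer with 10 μM GDP. Test compounds at 10^−10 to 10^−6 M with 1 μM histamine, 60 min at room temperature. Filter-bound GTP-gamma^35S read by scintillation; IC50 from non-linear regression of dose-response curves.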

T1 sequence (Q9Y5N1 with tags, fused parts or gaps E19D): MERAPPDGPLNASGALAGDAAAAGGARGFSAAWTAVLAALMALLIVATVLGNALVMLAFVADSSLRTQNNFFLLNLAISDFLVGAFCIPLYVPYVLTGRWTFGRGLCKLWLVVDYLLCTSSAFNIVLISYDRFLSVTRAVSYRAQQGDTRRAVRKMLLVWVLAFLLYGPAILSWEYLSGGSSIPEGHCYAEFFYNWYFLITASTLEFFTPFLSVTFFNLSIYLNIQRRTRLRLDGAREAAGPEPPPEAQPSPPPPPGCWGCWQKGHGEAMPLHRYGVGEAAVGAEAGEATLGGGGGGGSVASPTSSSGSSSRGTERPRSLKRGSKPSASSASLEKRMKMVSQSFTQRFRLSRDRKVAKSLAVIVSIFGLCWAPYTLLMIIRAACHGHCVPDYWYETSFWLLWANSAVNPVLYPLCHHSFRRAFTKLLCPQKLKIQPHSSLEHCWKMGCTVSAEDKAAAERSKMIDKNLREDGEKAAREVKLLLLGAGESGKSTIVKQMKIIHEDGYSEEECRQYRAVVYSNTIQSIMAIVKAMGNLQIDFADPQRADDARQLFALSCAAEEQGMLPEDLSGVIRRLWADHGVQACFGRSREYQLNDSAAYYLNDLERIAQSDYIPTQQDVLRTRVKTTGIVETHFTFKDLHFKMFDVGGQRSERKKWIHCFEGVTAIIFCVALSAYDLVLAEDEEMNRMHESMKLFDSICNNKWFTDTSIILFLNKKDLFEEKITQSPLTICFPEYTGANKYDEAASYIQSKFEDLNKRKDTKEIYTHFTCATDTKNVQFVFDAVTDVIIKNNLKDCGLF

Row | Structure (SMILES) | Ki [nM]
1 | CCOC(=O)c1cccc(-c2ccc(N3CCN(CC(=O)N4CCN(C5CCC5)CC4)CC3)nn2)c1 [Compound 1196, ethyl 3-(6-{4-(2-(4-cyclobutylpiperazin-1-yl)-2-oxoethyl]piperazin-1-yl}pyridazin-3-yl)benzoate] | < 1000
2 | CCOC(=O)c1ccc(-c2cnc(N3CCN(CC(=O)N4CCN(C5CCC5)CC4)CC3)cn2)cc1 [Compound 1197, ethyl 4-(5-{4-[2-(4-cyclobutylpiperazin-1-yl)-2-oxoethyl]piperazin-1-yl}pyrazin-2-yl)benzoate] | < 1000
3 | CCOC(=O)c1ccc(-c2ccc(N3CCN(CC(=O)N4CCN(C5CCC5)CC4)CC3)nn2)cc1 [Compound 1198, ethyl 4-(6-{4-[2-(4-cyclobutylpiperazin-1-yl)-2-oxoethyl]piperazin-1-yl}pyridazin-3-yl)benzoate] | < 1000
4 | CCOC(=O)c1ccc(-c2ccc(N3CCN(CC(=O)N4CCN(C5CCC5)CC4)CC3)cc2)cc1 [Compound 1199, ethyl 4′-{4-[2-(4-cyclobutylpiperazin-1-yl)-2-oxoethyl]piperazin-1-yl}biphenyl-4-carboxylate] | < 1000
5 | CCOC(=O)c1cccc(-c2ccc(N3CCN(CC(=O)N4CCN(C5CCC5)CC4)CC3)cc2)c1 [Compound 1200, ethyl 4′-{4-[2-(4-cyclobutylpiperazin-1-yl)-2-oxoethyl]piperazin-1-yl}biphenyl-3-carboxylate] | < 1000
6 | CCOC(=O)c1ccc(N2CCN(CC(=O)N3CCN(C4CCC4)CC3)CC2)cc1 [Compound 1201, ethyl 4-{4-[2-(4-cyclobutylpiperazin-1-yl)-2-oxoethyl]piperazin-1-yl}benzoate] | < 1000
7 | COC(=O)c1ccc(N2CCN(CC(=O)N3CCN(C4CCC4)CC3)CC2)nc1 [Compound 1202, methyl 6-{4-[2-(4-cyclobutylpiperazin-1-yl)-2-oxoethyl]piperazin-1-yl}nicotinate] | < 1000
8 | CCC(C)NC(=O)c1cccc(N2CCN(CC(=O)N3CCN(C4CCC4)CC3)CC2)c1 (centres unmarked) [Compound 1203, N-(sec-butyl)-3-{4-[2-(4-cyclobutylpiperazin-1-yl)-2-oxoethyl]piperazin-1-yl}benzamide] | < 1000
9 | CCC(C)NC(=O)c1ccc(N2CCN(CC(=O)N3CCN(C4CCC4)CC3)CC2)cc1 (centres unmarked) [Compound 1204, N-(sec-butyl)-4-{4-[2-(4-cyclobutylpiperazin-1-yl)-2-oxoethyl]piperazin-1-yl}benzamide] | < 1000
10 | CCC(C)NC(=O)c1ccc(N2CCN(CC(=O)N3CCN(C4CCC4)CC3)CC2)nc1 (centres unmarked) [Compound 1205, N-(sec-butyl)-6-{4-[2-(4-cyclobutylpiperazin-1-yl)-2-oxoethyl]piperazin-1-yl}nicotinamide] | < 1000
11 | CCN(CC)C1CCN(CC(=O)N2CCN(C(C)C)CC2)C1 (centres unmarked) [Compound 1206, N,N-diethyl-1-[2-(4-isopropylpiperazin-1-yl)-2-oxoethyl]pyrrolidin-3-amine] | < 1000
12 | O=C(CC1CCCC1)NC1CCN(CC(=O)N2CCN(C3CCC3)CC2)CC1 [Compound 1208, N-{1-[2-(4-cyclobutylpiperazin-1-yl)-2-oxoethyl]piperidin-4-yl}-2-cyclopentylacetamide] | < 1000
13 | O=C(CC1CCCCC1)NC1CCN(CC(=O)N2CCN(C3CCC3)CC2)CC1 [Compound 1209, N-{1-[2-(4-cyclobutylpiperazin-1-yl)-2-oxoethyl]piperidin-4-yl}-2-cyclohexylacetamide] | < 1000
14 | CCCC(C)C(=O)NC1CCN(CC(=O)N2CCN(C3CCC3)CC2)CC1 (centres unmarked) [Compound 1210, N-{1-[2-(4-cyclobutylpiperazin-1-yl)-2-oxoethyl]piperidin-4-yl}-2-methylpentanamide] | < 1000
15 | O=C(CCC1CCCC1)NC1CCN(CC(=O)N2CCN(C3CCC3)CC2)CC1 [Compound 1215, N-{1-[2-(4-cyclobutylpiperazin-1-yl)-2-oxoethyl]piperidin-4-yl}-cyclopentylpropanamide] | < 1000
16 | CC(C)(C)CC(=O)NC1CCN(CC(=O)N2CCN(C3CCC3)CC2)CC1 [Compound 1216, N-{1-[2-(4-cyclobutylpiperazin-1-yl)-2-oxoethyl]piperidin-4-yl}-3,3-dimethylbutanamide] | < 1000
17 | O=C(NC1CCN(CC(=O)N2CCN(C3CCC3)CC2)CC1)c1ccc(Oc2ccccc2)cc1 [Compound 1224, N-{1-[2-(4-cyclobutylpiperazin-1-yl)-2-oxoethyl]piperidin-4-yl}-4-phenoxybenzamide] | < 1000
18 | O=C(NC1CCN(CC(=O)N2CCN(C3CCC3)CC2)CC1)C1CC2CCC1C2 (centres unmarked) [Compound 1226, N-{1-[2-(4-cyclobutylpiperazin-1-yl)-2-oxoethyl]piperidin-4-yl}bicyclo[2.2.1]heptane-2-carboxamide] | < 1000
19 | O=C(NC1CCN(CC(=O)N2CCN(C3CCC3)CC2)CC1)C1CCCCC1 [Compound 1227, N-{1-[2-(4-cyclobutylpiperazin-1-yl)-2-oxoethyl]piperidin-4-yl} cyclohexanecarboxamide] | < 1000
20 | O=C(NC1CCN(CC(=O)N2CCN(C3CCC3)CC2)CC1)C1CCCCCC1 [Compound 1228, N-{1-[2-(4-cyclobutylpiperazin-1-yl)-2-oxoethyl]piperidin-4-yl} cycloheptanecarboxamide] | < 1000
21 | Cc1cc(C)cc(C(=O)NC2CCN(CC(=O)N3CCN(C4CCC4)CC3)C2)c1 (centres unmarked) [Compound 1229, N-{1-[2-(4-cyclobutylpiperazin-1-yl)-2-oxoethyl]pyrrolidin-3-yl}-3,5-dimethylbenzamide] | < 1000
22 | Cc1cccc(C(=O)NC2CCN(CC(=O)N3CCN(C4CCC4)CC3)C2)c1 (centres unmarked) [Compound 1230, N-{1-[2-(4-cyclobutylpiperazin-1-yl)-2-oxoethyl]pyrrolidin-3-yl}-3-methylbenzamide] | < 1000
23 | Cc1ccc(C(=O)NC2CCN(CC(=O)N3CCN(C4CCC4)CC3)C2)cc1 (centres unmarked) [Compound 1231, N-{1-[2-(4-cyclobutylpiperazin-1-yl)-2-oxoethyl]pyrrolidin-3-yl}-4-methylbenzamide] | < 1000
24 | O=C(NC1CCN(CC(=O)N2CCN(C3CCC3)CC2)C1)c1ccc2ccccc2c1 (centres unmarked) [Compound 1233, N-{1-[2-(4-cyclobutylpiperazin-1-yl)-2-oxoethyl]pyrrolidin-3-yl}-2-naphthamide] | < 1000
25 | CCCc1ccc(C(=O)NC2CCN(CC(=O)N3CCN(C4CCC4)CC3)C2)cc1 (centres unmarked) [Compound 1234, N-{1-[2-(4-cyclobutylpiperazin-1-yl)-2-oxoethyl]pyrrolidin-3-yl}-4-propylbenzamide] | < 1000
26 | CC(C)c1ccc(C(=O)NC2CCN(CC(=O)N3CCN(C4CCC4)CC3)C2)cc1 (centres unmarked) [Compound 1235, N-{1-[2-(4-cyclobutylpiperazin-1-yl)-2-oxoethyl]pyrrolidin-3-yl)-4-isopropylbenzamide] | < 1000

The next lines start with the values.

Row | Ki [nM] | Structure (SMILES)
27 | < 1000 | Cc1cc(C)cc(C(=O)NC2CCN(CC(=O)N3CCN(C4CCC4)CC3)CC2)c1 [Compound 1211, N-{1-[2-(4-cyclobutylpiperazin-1-yl)-2-oxoethyl]piperidin-4-yl}-3,5-dimethylbenzamide]
28 | < 1000 | Cc1ccc(C(=O)NC2CCN(CC(=O)N3CCN(C4CCC4)CC3)CC2)cc1C [Compound 1212, N-{1-[2-(4-cyclobutylpiperazin-1-yl)-2-oxoethyl]piperidin-4-yl}-3,4-dimethylbenzamide]
29 | < 1000 | CCOc1cccc(C(=O)NC2CCN(CC(=O)N3CCN(C4CCC4)CC3)CC2)c1 [Compound 1213, N-{1-[2-(4-cyclobutylpiperazin-1-yl)-2-oxoethyl]piperidin-4-yl}-3-ethoxybenzamide]
30 | < 1000 | COc1ccc(C(=O)NC2CCN(CC(=O)N3CCN(C4CCC4)CC3)CC2)cc1F [Compound 1214, N-{1-[2-(4-cyclobutylpiperazin-1-yl)-2-oxoethyl]piperidin-4-yl}-3-fluoro-4-methoxybenzamide]
31 | < 1000 | Cc1ccc(C(=O)NC2CCN(CC(=O)N3CCN(C4CCC4)CC3)CC2)cc1 [Compound 1217, N-{1-[2-(4-cyclobutylpiperazin-1-yl)-2-oxoethyl]piperidin-4-yl}-4-methylbenzamide]
32 | < 1000 | CCCc1ccc(C(=O)NC2CCN(CC(=O)N3CCN(C4CCC4)CC3)CC2)cc1 [Compound 1218, N-{1-[2-(4-cyclobutylpiperazin-1-yl)-2-oxoethyl]piperidin-4-yl}-4-propylbenzamide]
33 | < 1000 | CC(C)c1ccc(C(=O)NC2CCN(CC(=O)N3CCN(C4CCC4)CC3)CC2)cc1 [Compound 1219, N-{1-[2-(4-cyclobutylpiperazin-1-yl)-2-oxoethyl]piperidin-4-yl}-4-isopropylbenzamide]
34 | < 1000 | CCOc1ccc(C(=O)NC2CCN(CC(=O)N3CCN(C4CCC4)CC3)CC2)cc1 [Compound 1221, N-{1-[2-(4-cyclobutylpiperazin-1-yl)-2-oxoethyl]piperidin-4-yl}-4-ethoxybenzamide]
35 | < 1000 | CSc1ccc(C(=O)NC2CCN(CC(=O)N3CCN(C4CCC4)CC3)CC2)cc1 [Compound 1222, N-{1-[2-(4-cyclobutylpiperazin-1-yl)-2-oxoethyl]piperidin-4-yl}-4-(methylthio)benzamide]
36 | < 1000 | CCSc1ccc(C(=O)NC2CCN(CC(=O)N3CCN(C4CCC4)CC3)CC2)cc1 [Compound 1223, N-{1-[2-(4-cyclobutylpiperazin-1-yl)-2-oxoethyl]piperidin-4-yl}-4-(ethylthio)benzamide]
37 | < 1000 | O=C(NC1CCN(CC(=O)N2CCN(C3CCC3)CC2)CC1)c1ccccc1 [Compound 1225, N-{1-[2-(4-cyclobutylpiperazin-1-yl)-2-oxoethyl]piperidin-4-yl}benzamide]
38 | < 1000 | Cc1ccc(C(=O)NC2CCN(CC(=O)N3CCN(C4CCC4)CC3)C2)cc1C (centres unmarked) [Compound 1232, N-{1-[2-(4-cyclobutylpiperazin-1-yl)-2-oxoethyl]pyrrolidin-3-yl}-3,4-dimethylbenzamide]

— patent US7851474B2, “Dipiperazinyl ketones and related analogues” (Neurogen Corporation, priority 2005, dated 2010)
